Among the data in the supplement of paper PMC10307832 are relative viability values, retold here.

What all share (test): relative viability (nuclei count vs DMSO), 5 days (fraction); higher = more cells survive
Compound in one experiment: C[C@@H](C(=O)N[C@@H](C1CCCCC1)C(=O)N2CCC[C@H]2C(=O)N[C@@H]3[C@@H](CC4=CC=CC=C34)OCC#CC#CCO[C@@H]5CC6=CC=CC=C6[C@@H]5NC(=O)[C@@H]7CCCN7C(=O)[C@H](C8CCCCC8)NC(=O)[C@H](C)NC)NC [AZD5582]
The gist of the method:
(§1)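 On vehicle-anchored 1536-well plates, lung cancer cell lines held overnight at 37 °C were pinned with five library-drug doses (not always all listed) spaced by √10. With no medium change over 5 days, they were then fixed, permeabilised and Hoechst-stained in one step and imaged at 4×. MetaXpress counted nuclei, and viability is the median across plates of treated-well over vehicle-well nuclei. Acceptance needed control CV below 25% and at least one doubling.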

Compound in another experiment: Cn1nnc2c(C(N)=O)ncn2c1=O [Temozolomide]
The method in brief:
as §1

Compound in experiment [1]: Cn1nnc2c(C(N)=O)ncn2c1=O [Temozolomide] + CC1(C)CCC(c2ccc(Cl)cc2)=C(CN2CCN(c3ccc(C(=O)NS(=O)(=O)c4ccc(N[C@H](CCN5CCOCC5)CSc5ccccc5)c(S(=O)(=O)C(F)(F)F)c4)cc3)CC2)C1 [Navitoclax] (partner 0.5 µM)
The method in brief:
(§2)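 The day after seeding in 1536-well plates, lung cancer cell lines were treated by pin tool with a single drug, or with a fixed anchor-drug dose together with five library-drug doses (not always all listed) in √10 steps. After 5 days, a combined fix-and-stain solution (final 0.05% Triton X-100, 1% formaldehyde, 1 ug/ml Hoechst) was added. Nuclei counted on 4× images gave relative viability as treated counts over vehicle counts, reported as the median of duplicate plates.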

Compound in the experiment “AZD5582 + Trametinib”: C[C@@H](C(=O)N[C@@H](C1CCCCC1)C(=O)N2CCC[C@H]2C(=O)N[C@@H]3[C@@H](CC4=CC=CC=C34)OCC#CC#CCO[C@@H]5CC6=CC=CC=C6[C@@H]5NC(=O)[C@@H]7CCCN7C(=O)[C@H](C8CCCCC8)NC(=O)[C@H](C)NC)NC [AZD5582] + CC(=O)Nc1cccc(-n2c(=O)n(C3CC3)c(=O)c3c(Nc4ccc(I)cc4F)n(C)c(=O)c(C)c32)c1 [Trametinib] (partner 0.02 µM)
The gist of the method:
as §2

For the cell line NCI-H1755, the relative viability with AZD5582 (0.001581 µM) is 0.939; in the experiment with AZD5582 (0.005 µM), 0.99; in the experiment with AZD5582 (0.01581 µM) it was 0.946; with AZD5582 (0.05 µM) it was 1.05; in the experiment with Temozolomide (0.2 µM), 1.08; with Temozolomide (0.6325 µM) it was 0.971. The relative viability worked out at 1.04 with Temozolomide (2 µM); 0.965 with Temozolomide (6.325 µM); 0.818 with Temozolomide (20 µM); 1.07 in experiment [1] (first compound 0.2 µM); 0.982 in experiment [1] (first compound 0.6325 µM); 1.01 in experiment [1] (first compound 2 µM). Moreover, the relative viability in experiment [1] (first compound 6.325 µM) was determined as 0.971; in experiment [1] (first compound 20 µM), 0.727; with AZD5582 + Trametinib (first compound 0.001581 µM), 0.761; in the experiment with AZD5582 + Trametinib (first compound 0.005 µM) it was 0.843; with AZD5582 + Trametinib (first compound 0.01581 µM), 0.802; with AZD5582 + Trametinib (first compound 0.05 µM) it was 0.9.
Regarding SK-MES-1, the relative viability stood at 0.943 in the experiment with AZD5582 (0.001581 µM); 1.15 with AZD5582 (0.005 µM); 0.972 in the experiment with AZD5582 (0.01581 µM); 1.09 with AZD5582 (0.05 µM); 1.13 in the experiment with Temozolomide (0.2 µM); 1.02 with Temozolomide (0.6325 µM). For the same cell line, the relative viability with Temozolomide (2 µM) is 1.06; with Temozolomide (6.325 µM), 1.05; with Temozolomide (20 µM), 0.889; in experiment [1] (first compound 0.2 µM) it was 1.22; in experiment [1] (first compound 0.6325 µM), 1.16; in experiment [1] (first compound 2 µM), 1.23. For the same cell line, the relative viability in experiment [1] (first compound 6.325 µM) amounted to 1.22; in experiment [1] (first compound 20 µM) it was 1.38; with AZD5582 + Trametinib (first compound 0.001581 µM), 0.675; with AZD5582 + Trametinib (first compound 0.005 µM), 0.949; with AZD5582 + Trametinib (first compound 0.01581 µM), 0.542; with AZD5582 + Trametinib (first compound 0.05 µM), 1.
Take NCI-H838: the relative viability amounted to 0.895 in the experiment with AZD5582 (0.001581 µM); 1.09 with AZD5582 (0.005 µM); 0.785 in the experiment with AZD5582 (0.01581 µM); 0.975 with AZD5582 (0.05 µM); 0.948 with Temozolomide (0.2 µM); 1.02 in the experiment with Temozolomide (0.6325 µM). For the same cell line, the relative viability with Temozolomide (2 µM) worked out at 1.02; with Temozolomide (6.325 µM) it was 0.928; with Temozolomide (20 µM), 0.986; in experiment [1] (first compound 0.2 µM) it was 1.13; in experiment [1] (first compound 0.6325 µM), 1.11; in experiment [1] (first compound 2 µM), 1.17. For the same cell line, the relative viability in experiment [1] (first compound 6.325 µM) turned out to be 1.19; in experiment [1] (first compound 20 µM), 1.17; with AZD5582 + Trametinib (first compound 0.001581 µM), 0.493; with AZD5582 + Trametinib (first compound 0.005 µM) it was 0.582; with AZD5582 + Trametinib (first compound 0.01581 µM), 0.405; with AZD5582 + Trametinib (first compound 0.05 µM), 0.498.
On to NCI-H2170, for which the relative viability was found to be 0.956 in the experiment with AZD5582 (0.001581 µM); 0.985 with AZD5582 (0.005 µM); 0.987 in the experiment with AZD5582 (0.01581 µM); 0.989 in the experiment with AZD5582 (0.05 µM); 1.06 with Temozolomide (0.6325 µM); 1 with Temozolomide (2 µM). Moreover, the relative viability in the experiment with Temozolomide (6.325 µM) was found to be 0.858; with Temozolomide (20 µM), 0.582; in experiment [1] (first compound 0.6325 µM), 0.478; in experiment [1] (first compound 2 µM), 0.6; in experiment [1] (first compound 6.325 µM) it was 0.534; in experiment [1] (first compound 20 µM), 0.32. Moreover, the relative viability with AZD5582 + Trametinib (first compound 0.001581 µM) amounted to 0.904; in the experiment with AZD5582 + Trametinib (first compound 0.005 µM) it was 0.825; with AZD5582 + Trametinib (first compound 0.01581 µM), 0.861; in the experiment with AZD5582 + Trametinib (first compound 0.05 µM) it was 1.03.
As for HCC-827, the relative viability in the experiment with AZD5582 (0.001581 µM) amounted to 1.03; with AZD5582 (0.005 µM), 1.07; with AZD5582 (0.01581 µM), 0.991; with AZD5582 (0.05 µM) it was 0.993; with Temozolomide (0.2 µM), 1.08; in the experiment with Temozolomide (0.6325 µM), 1.05. Further, the relative viability amounted to 1.05 with Temozolomide (2 µM); 1 with Temozolomide (6.325 µM); 0.177 with Temozolomide (20 µM); 1.07 in experiment [1] (first compound 0.2 µM); 1.07 in experiment [1] (first compound 0.6325 µM); 0.992 in experiment [1] (first compound 2 µM). The relative viability was 0.984 in experiment [1] (first compound 6.325 µM); 0.129 in experiment [1] (first compound 20 µM); 0.538 in the experiment with AZD5582 + Trametinib (first compound 0.001581 µM); 0.611 with AZD5582 + Trametinib (first compound 0.005 µM); 0.515 with AZD5582 + Trametinib (first compound 0.01581 µM); 0.589 in the experiment with AZD5582 + Trametinib (first compound 0.05 µM).
With NCI-H1793, the relative viability with AZD5582 (0.001581 µM) stood at 0.897; in the experiment with AZD5582 (0.005 µM), 1.05; in the experiment with AZD5582 (0.01581 µM), 0.822; with AZD5582 (0.05 µM) it was 0.797; in the experiment with Temozolomide (0.6325 µM), 0.919; with Temozolomide (2 µM) it was 0.918. Moreover, the relative viability is 0.87 in the experiment with Temozolomide (6.325 µM); 0.636 with Temozolomide (20 µM); 0.358 in experiment [1] (first compound 0.6325 µM); 0.415 in experiment [1] (first compound 2 µM); 0.506 in experiment [1] (first compound 6.325 µM); 0.3 in experiment [1] (first compound 20 µM). Also, the relative viability was 0.464 in the experiment with AZD5582 + Trametinib (first compound 0.001581 µM), 0.536 with AZD5582 + Trametinib (first compound 0.005 µM), 0.463 with AZD5582 + Trametinib (first compound 0.01581 µM) and 0.557 in the experiment with AZD5582 + Trametinib (first compound 0.05 µM).
Consider NCI-H441, for which the relative viability in the experiment with AZD5582 (0.001581 µM) came to 0.77; with AZD5582 (0.005 µM), 0.954; with AZD5582 (0.01581 µM), 0.869; with AZD5582 (0.05 µM), 0.982; in the experiment with Temozolomide (0.2 µM), 1.25; with Temozolomide (0.6325 µM) it was 1.06. For the same cell line, the relative viability with Temozolomide (2 µM) was determined as 1.29; with Temozolomide (6.325 µM), 0.997; in the experiment with Temozolomide (20 µM) it was 1.15; in experiment [1] (first compound 0.2 µM) it was 0.692; in experiment [1] (first compound 0.6325 µM), 0.628; in experiment [1] (first compound 2 µM), 0.926. In addition, the relative viability in experiment [1] (first compound 6.325 µM) came out at 0.542; in experiment [1] (first compound 20 µM), 0.789; in the experiment with AZD5582 + Trametinib (first compound 0.001581 µM), 0.508; in the experiment with AZD5582 + Trametinib (first compound 0.005 µM) it was 0.636; in the experiment with AZD5582 + Trametinib (first compound 0.01581 µM), 0.385; in the experiment with AZD5582 + Trametinib (first compound 0.05 µM) it was 0.34.
As for H3255, the relative viability worked out at 0.94 in the experiment with AZD5582 (0.001581 µM); 1 in the experiment with AZD5582 (0.005 µM); 0.862 with AZD5582 (0.01581 µM); 0.831 with AZD5582 (0.05 µM); 0.96 with Temozolomide (0.6325 µM); 0.993 with Temozolomide (2 µM). In addition, the relative viability with Temozolomide (6.325 µM) worked out at 0.884; with Temozolomide (20 µM), 0.231; in experiment [1] (first compound 0.6325 µM) it was 0.523; in experiment [1] (first compound 2 µM), 0.469; in experiment [1] (first compound 6.325 µM), 0.485; in experiment [1] (first compound 20 µM), 0.0789. Moreover, the relative viability in the experiment with AZD5582 + Trametinib (first compound 0.001581 µM) came out at 0.58; with AZD5582 + Trametinib (first compound 0.005 µM) it was 0.667; with AZD5582 + Trametinib (first compound 0.01581 µM), 0.557; with AZD5582 + Trametinib (first compound 0.05 µM), 0.524.
